# Test results reported in paper PMC8247773, “Benzohydrazide and Phenylacetamide Scaffolds: New Putative ParE Inhibitors” (Frontiers in Bioengineering and Biotechnology, 2021).
# Where “and” joins values, the source holds several entries; their conditions need not be identical. Identical values can stand only once.
# Legend:
# [1] = test system: Escherichia coli (NCIM 2065); experiment: Minimum bactericidal concentration (MBC); format: cell-based; settings: E. Coli (NCIM 2065); for MBC/MIC: ratio ≤2 bactericidal, ≥4 tolerance
# Protocol: (§1) MBC can be defined as the minimum concentration of a compound required to kill the bacteria over a fixed period under precise conditions. […] Colonies were counted, and colony forming unit (CFU) per milliliter was calculated.
# Vero cells [2] = test system: Vero cells
# [3] = test system: Bacillus subtilis (NCIM 2545); set-up: method as in Yele et al., 2020, 2021; settings: ref Yele et al., 2020, 2021; cited from earlier work
# [4] = test system: Klebsiella pneumonia (NCIM 2706); set-up: method as in Yele et al., 2020, 2021; settings: ref Yele et al., 2020, 2021; cited from earlier work
# MRSA (ATCC43300) [5] = experiment: Antibacterial susceptibility test, microbroth dilution MIC; format: cell-based, methicillin-resistant Staphylococcus aureus; settings: mean ± SD
# [6] = test system: Mycobacterium tuberculosis (NCIM 2984); set-up: method as in Yele et al., 2020, 2021; settings: ref Yele et al., 2020, 2021; cited from earlier work
# [7] = test system: Pseudomonas aeruginosa (NCIM 2036); set-up: method as in Yele et al., 2020, 2021; settings: ref Yele et al., 2020, 2021; cited from earlier work
# [8] = test system: Staphylococcus epidermis (NCIM 2493); set-up: method as in Yele et al., 2020, 2021; settings: ref Yele et al., 2020, 2021; cited from earlier work
# [9] = test system: Escherichia coli (NCIM 2567); set-up: method as in Yele et al., 2020, 2021; settings: ref Yele et al., 2020, 2021; cited from earlier work
# [10] = test system: Escherichia coli (NCIM 2065); experiment: Antibacterial susceptibility test, microbroth dilution MIC; format: cell-based; settings: E. Coli (NCIM 2065); mean ± SD
# [11] = test system: Staphylococcus aureus (NCIM 5022); set-up: method as in Yele et al., 2020, 2021; settings: ref Yele et al., 2020, 2021; cited from earlier work
# Vero cells [12] = experiment: In vitro cytotoxicity MTT assay; settings: CC50 Vero cells / IC50
# MRSA (NCIM 5021) [13] = experiment: Antibacterial susceptibility test, microbroth dilution MIC; format: cell-based, methicillin-resistant Staphylococcus aureus; settings: mean ± SD
# MRSA (ATCC43300) [14] = experiment: Minimum bactericidal concentration (MBC); format: cell-based, methicillin-resistant Staphylococcus aureus
# Protocol: as §1
# MRSA (NCIM 5021) [15] = experiment: Minimum bactericidal concentration (MBC); format: cell-based, methicillin-resistant Staphylococcus aureus
# Protocol: as §1
# E. coli ParE enzyme = biological target: T1, E. coli ParE enzyme (Escherichia coli, UniProt P20083); experiment: E. coli ParE ATPase enzyme inhibition assay (ProFoldin kit, malachite green); format: biochemical; settings: ATPase activity, mean ± SD (n = 3)
# T1 construct: purchased ProFoldin, Hudson, United States
# Protocol: The assay was performed as per the standard protocol provided by the ProFoldin. […] ParE hydrolyzes ATP as the source of molecular energy to perform decatenation reactions. Fluoroquinolones and aminocoumarins usually block ATPase activity to hinder the biological activities of topoisomerase II. Thus, the topoisomerase ATPase assay can be used for high-throughput screening of topoisomerase inhibitors. The ATPase activity of the E. coli ParE enzyme was based on the detection of inorganic phosphate produced by the hydrolysis of ATP in the presence of DNA. The phosphate is detected using a microplate reader at an absorbance wavelength of 650 nm. The selected compounds were tested for the inhibition of ATPase activity of ParE enzyme. […] The reaction mixture was incubated for 1 h at 37°C and then quenched with 45 μL of Dye. Incubate for 5 min, and the absorbance was measured at 650 nm. The IC50 values were determined from the absorbance readings using no enzyme and no compound controls. They were calculated using the non-linear regression curve fit method.
# E. coli [16] = experiment: Post antibiotic effect (PAE); format: cell-based, Escherichia coli; settings: for Time for 1 log10: untreated control 2 h
# E. coli [17] = experiment: Checkerboard synergy with FDA approved drugs; format: cell-based, Escherichia coli
# T1 sequence (P20083 whole entry): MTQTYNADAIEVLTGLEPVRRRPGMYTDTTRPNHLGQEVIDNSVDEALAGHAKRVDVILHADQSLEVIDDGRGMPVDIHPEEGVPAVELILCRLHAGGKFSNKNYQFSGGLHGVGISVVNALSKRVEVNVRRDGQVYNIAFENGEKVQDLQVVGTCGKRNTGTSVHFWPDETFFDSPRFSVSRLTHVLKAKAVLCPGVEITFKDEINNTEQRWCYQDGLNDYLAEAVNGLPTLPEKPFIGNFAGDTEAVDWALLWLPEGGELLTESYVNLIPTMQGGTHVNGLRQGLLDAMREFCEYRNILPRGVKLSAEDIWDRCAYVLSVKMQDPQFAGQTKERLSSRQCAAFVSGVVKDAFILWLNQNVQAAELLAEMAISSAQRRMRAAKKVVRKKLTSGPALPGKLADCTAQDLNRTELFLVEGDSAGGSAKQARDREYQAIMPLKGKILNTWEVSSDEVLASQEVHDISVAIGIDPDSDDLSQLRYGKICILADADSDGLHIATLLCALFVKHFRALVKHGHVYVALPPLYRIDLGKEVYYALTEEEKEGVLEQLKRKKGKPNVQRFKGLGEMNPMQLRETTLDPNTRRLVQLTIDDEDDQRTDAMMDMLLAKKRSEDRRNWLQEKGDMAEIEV
# T1 sequence (P0AFI2 whole entry, further chain): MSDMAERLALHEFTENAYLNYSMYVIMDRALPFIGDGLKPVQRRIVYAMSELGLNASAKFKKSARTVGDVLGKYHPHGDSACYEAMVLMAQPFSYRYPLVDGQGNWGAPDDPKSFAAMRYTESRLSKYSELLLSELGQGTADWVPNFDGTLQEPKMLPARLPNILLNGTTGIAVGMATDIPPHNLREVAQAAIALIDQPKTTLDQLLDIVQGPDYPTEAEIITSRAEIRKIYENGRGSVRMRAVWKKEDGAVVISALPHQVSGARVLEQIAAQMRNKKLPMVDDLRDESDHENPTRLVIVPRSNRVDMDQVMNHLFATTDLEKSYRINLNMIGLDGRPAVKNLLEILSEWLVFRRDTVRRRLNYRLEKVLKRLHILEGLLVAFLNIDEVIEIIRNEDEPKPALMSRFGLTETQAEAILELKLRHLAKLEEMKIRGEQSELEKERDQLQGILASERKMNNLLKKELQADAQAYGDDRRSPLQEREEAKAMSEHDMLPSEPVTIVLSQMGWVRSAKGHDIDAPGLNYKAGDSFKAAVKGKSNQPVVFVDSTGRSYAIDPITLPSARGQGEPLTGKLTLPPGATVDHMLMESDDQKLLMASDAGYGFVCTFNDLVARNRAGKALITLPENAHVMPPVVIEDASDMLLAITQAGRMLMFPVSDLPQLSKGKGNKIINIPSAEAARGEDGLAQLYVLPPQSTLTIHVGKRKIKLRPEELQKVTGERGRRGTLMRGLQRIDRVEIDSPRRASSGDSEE
SMILES,MBC [1],MBC/MIC [1],CC50 (Vero cells [2]),Minimum inhibitory concentration (MIC) B. s [3],Minimum inhibitory concentration (MIC) K. p [4],Minimum inhibitory concentration (MRSA (ATCC43300) [5]),Minimum inhibitory concentration (MIC) M. t [6],Minimum inhibitory concentration (MIC) P. a [7],Minimum inhibitory concentration (MIC) S. e [8],Minimum inhibitory concentration (MIC) E. c [9],Minimum inhibitory concentration [10],Minimum inhibitory concentration (MIC) S. a [11],SI (CC50/IC50) (Vero cells [12]),Minimum inhibitory concentration (MRSA (NCIM 5021) [13]),MBC (MRSA (ATCC43300) [14]),MBC/MIC (MRSA (ATCC43300) [14]),MBC (MRSA (NCIM 5021) [15]),MBC/MIC (MRSA (NCIM 5021) [15]),IC50 against E. coli ParE enzyme (E. coli ParE enzyme),also measured
O=C(CCl)Nc1ccccc1OCC(=O)Nc1ccc([N+](=O)[O-])cc1[N+](=O)[O-] [Compound 7],0.83 ± 0.1 µg/mL,1,224.7306 µg/mL,6.56,1.25,0.85 ± 0.09 µg/mL,1.02,0.67,8.62,1.52,0.83 ± 0.05 µg/mL,5.78,236.5585,0.95 ± 0.06 µg/mL,0.85 ± 0.09 µg/mL,1,0.95 ± 0.06 µg/mL,1,0.95 ± 0.06 µg/mL,–
CNC(C)C1CCC(N)C(OC2C(N)CC(N)C(OC3OCC(C)(O)C(NC)C3O)C2O)O1 (centres unmarked) [Gentamicin],–,–,–,–,–,–,–,–,–,–,–,–,–,–,–,–,–,–,–,PAE = T - C (E. coli [16]; 1 × mic): 0 h; Time for 1 log10 (E. coli [16]; 1 × mic): 2 h; PAE = T - C (E. coli [16]; 10 × mic): 1 h; Time for 1 log10 (E. coli [16]; 10 × mic): 3 h; FIC A (E. coli [17]; FIC of compound 5 in combination): 0.1453; FIC A (E. coli [17]; FIC of compound 21 in combination with the row's drug): 0.1907; FIC B (E. coli [17]; FIC of the drug in combination with compound 5): 0.1254; FIC B (E. coli [17]; FIC of the drug in combination with compound 21): 0.1510; Inference (E. coli [17]; drug combined with compound 5): Synergistic (synergistic when the ΣFICs is ≤ 0.5); Inference (E. coli [17]; drug combined with compound 21): Synergistic (synergistic when the ΣFICs is ≤ 0.5); ΣFIC A + FIC B (E. coli [17]; drug combined with compound 21): 0.3417
O=C(COc1ccccc1NC(=O)CCl)NNC(=O)c1ccc([N+](=O)[O-])cc1 [Compound 14],–,1,64.7605 µg/mL,5.70,0.98,0.94 ± 0.14 µg/mL,2.56,1.98,5.61,0.80,4.14 ± 0.07 µg/mL,8.56,179.8902,4.35 ± 0.09 µg/mL,0.94 ± 0.14 µg/mL,1,–,–,0.36 ± 0.03 µg/mL,–
O=C(COc1ccccc1NC(=O)CCl)NNc1ccc([N+](=O)[O-])cc1[N+](=O)[O-] [Compound 17],7.2 ± 0.7 µg/mL,2,150.8056 µg/mL,4.89,1.26,3.23 ± 0.21 µg/mL,0.98,0.98,3.56,1.25,3.41 ± 0.25 µg/mL,2.38,175.3553,3.71 ± 0.15 µg/mL,–,–,7.46 ± 0.05 µg/mL,2,0.86 ± 0.12 µg/mL,–
O=C(COc1ccc2ccccc2c1)Nc1ccc(Cl)cc1 [Compound 29],0.81 ± 0.14 µg/mL,1,–,4.69,0.88,0.91 ± 0.11 µg/mL,0.77,5.48,4.70,0.77,0.81 ± 0.14 µg/mL,0.90,–,0.75 ± 0.19 µg/mL,0.91 ± 0.11 µg/mL,1,0.75 ± 0.19 µg/mL,1,2.77 µg/mL,–
O=C(COc1ccccc1NC(=O)CCl)Nc1cccc(Cl)c1 [Compound 10],0.83 ± 0.05 µg/mL,1,–,1.97,14.70,0.88 ± 0.10 µg/mL,5.26,10.81,1.95,7.07,0.83 ± 0.05 µg/mL,0.92,–,0.82 ± 0.03 µg/mL,0.88 ± 0.10 µg/mL,1,0.82 ± 0.03 µg/mL,1,1.84 µg/mL,–
O=C(CSc1nc2ccccc2s1)Nc1ccccc1 [Compound 23],0.95 ± 0.05 µg/mL,1,–,1.27,1.62,0.75 ± 0.11 µg/mL,1.74,1.88,1.51,2.11,0.95 ± 0.05 µg/mL,1.84,–,0.94 ± 0.04 µg/mL,0.75 ± 0.11 µg/mL,1,0.94 ± 0.04 µg/mL,1,1.76 µg/mL,–
O=C(COc1ccccc1NC(=O)CCl)Nc1cc(Cl)c(Cl)cc1Cl [Compound 11],0.97 ± 0.01 µg/mL,1,–,0.94,4.43,0.84 ± 0.05 µg/mL,4.71,9.33,1.33,7.98,0.97 ± 0.01 µg/mL,0.68,–,1.79 ± 0.16 µg/mL,0.84 ± 0.05 µg/mL,1,7.18 ± 0.15 µg/mL,4,1.81 µg/mL,–
O=C(CSc1nc2ccccc2s1)Nc1ccc([N+](=O)[O-])cc1 [Compound 24],0.78 ± 0.08 µg/mL,1,168.8089 µg/mL,1.97,2.24,0.73 ± 0.12 µg/mL,2.52,15.0,1.98,2.17,0.78 µg/mL and 0.78 ± 0.08 µg/mL,0.78,351.6852,0.81 ± 0.10 µg/mL,0.73 ± 0.12 µg/mL,1,0.81 ± 0.10 µg/mL,1,–,–
